In brackets after ≈: the same amount, converted by molar mass.
Experiments:
Experiment in all cases: Antibacterial assay, microtitration MIC (Test A)
Format in all cases: cell-based
[1] = tested on: H. influenzae HI-3542; conditions: strain HI-3542; for MIC: Haemophilus influenzae, HI3542, Gram Negative Bacteria, read-out: Minimum Inhibitory Concentrations H. influenzae HI-3542; for Minimum Inhibitory Concentrations H. influenzae HI-3542: Gram Negative Bacteria
Description: (§1) The compounds of the present invention were tested against an assortment of Gram-negative and Gram-positive organisms using standard microtitration techniques (Cohen et. al., Antimicrob., 1985;28:766; Heifetz, et. al., Antimicrob., 1974;6:124). The results of the evaluation are shown in Tables 1A and B, wherein “-” means no data.

[2] = tested on: M. catarrhalis BC-3531; conditions: strain BC-3531; for MIC: Moraxella catarrhalis, BC3531, Gram Negative Bacteria, read-out: Minimum Inhibitory Concentrations M. catarrhalis BC-3531; for Minimum Inhibitory Concentrations M. catarrhalis BC-3531: Gram Negative Bacteria
Description: as §1

[3] = tested on: E. coli EC-2549; conditions: strain EC-2549; for MIC: Escherichia coli, EC2549, Gram Negative Bacteria, read-out: Minimum Inhibitory Concentrations E. coli EC-2549; for Minimum Inhibitory Concentrations E. coli EC-2549: Gram Negative Bacteria
Description: as §1

Compound	MIC [1] [µg/mL]	MIC [2] [µg/mL]	MIC [3] [µg/mL]	Minimum Inhibitory Concentrations H. influenzae HI-3542 [1] [µg/mL]	Minimum Inhibitory Concentrations M. catarrhalis BC-3531 [2] [µg/mL]	Minimum Inhibitory Concentrations E. coli EC-2549 [3] [µg/mL]
O=C(O)c1cn(C2CC2)c2c(OC(F)F)c(N3CC4CC(O)C(O)C4C3)c(F)cc2c1=O (stereo not drawn) [drawing 448]	0.03 (≈ 0.066 µM)	0.06 (≈ 0.132 µM)	0.5 (≈ 1.1 µM)			
Nc1nc(-n2cc(C(=O)O)c(=O)c3cc(F)c(N4C[C@@H](CO)[C@@H](CO)C4)c(Cl)c32)c(F)cc1F [drawing 383]	0.008 (≈ 0.016 µM)	0.25 (≈ 0.501 µM)	0.5 (≈ 1 µM)			
COc1c(N2CCC(C)(C(O)CC(F)(F)F)C2)c(F)cc2c(=O)c(C(=O)O)cn(C3CC3)c12 (stereo not drawn) [drawing 374]	0.03 (≈ 0.0635 µM)	0.03 (≈ 0.0635 µM)	0.125 (≈ 0.265 µM)			
Cc1c(N2CC(C)(CO)C(C)(CO)C2)c(F)cc2c(=O)c(C(=O)O)cn(C3CC3)c12 (stereo not drawn) [drawing 438]				0.125	0.25	2
COc1c(N2CCC(CO)C2)c(F)cc2c(=O)c(C(=O)O)cn(C3CC3)c12 (stereo not drawn) [drawing 309]	0.002 (≈ 0.00531 µM)	0.004 (≈ 0.0106 µM)	0.03 (≈ 0.0797 µM)			
CC(O)(CO)C1CCN(c2c(F)cc3c(=O)c(C(=O)O)cn(C4CC4)c3c2Cl)C1 (stereo not drawn) [drawing 339]	0.16 (≈ 0.377 µM)	0.03 (≈ 0.0706 µM)	0.125 (≈ 0.294 µM)			
Nc1c(F)c(N2CCC(C(O)C(F)(F)F)C2)c(F)c2c1c(=O)c(C(=O)O)cn2C1CC1 (stereo not drawn) [drawing 332]	0.004 (≈ 0.00894 µM)	0.008 (≈ 0.0179 µM)	0.06 (≈ 0.134 µM)			
CC(=O)O[C@@H]1CC[C@H]2CN(c3c(F)cc4c(=O)c(C(=O)O)cn(-c5nc(N)c(F)cc5F)c4c3Cl)C[C@H]21 [drawing 445]	0.03 (≈ 0.0559 µM)	0.06 (≈ 0.112 µM)	0.5 (≈ 0.931 µM)			
O=C(O)c1cn(C2CC2)c2c(Cl)c(N3C[C@@H](CO)[C@@H](CO)C3)c(F)cc2c1=O [drawing 382]	0.004 (≈ 0.00974 µM)	0.03 (≈ 0.073 µM)	0.06 (≈ 0.146 µM)			
Cc1c(N2CCC(C(O)C(F)F)C2)c(F)cc2c(=O)c(C(=O)O)cn(C3CC3)c12 (stereo not drawn) [drawing 310]	0.008 (≈ 0.0195 µM)	0.008 (≈ 0.0195 µM)	0.06 (≈ 0.146 µM)			
Cc1c(N2CC(CO)C(C)(C)C2)c(F)cc2c(=O)c(C(=O)O)cn(C3CC3)c12 (stereo not drawn) [drawing 418]	0.015 (≈ 0.0386 µM)	0.008 (≈ 0.0206 µM)	0.06 (≈ 0.154 µM)			
Cc1c(N2C[C@@H]3C[C@@H](O)[C@@H](O)[C@@H]3C2)c(F)cc2c(=O)c(C(=O)O)cn(C3CC3)c12 [drawing 446]	0.008 (≈ 0.0199 µM)	0.03 (≈ 0.0745 µM)	0.125 (≈ 0.311 µM)			
Cc1c(N2CCC(CCO)C2)c(F)cc2c(=O)c(C(=O)O)cn(C3CC3)c12 (stereo not drawn) [drawing 308]	0.03 (≈ 0.0801 µM)	0.015 (≈ 0.0401 µM)	0.06 (≈ 0.16 µM)			
Cc1c(N2C[C@@H]3CC[C@@](O)(CO)[C@@H]3C2)c(F)cc2c(=O)c(C(=O)O)cn(C3CC3)c12 [drawing 450]	0.015 (≈ 0.036 µM)	0.03 (≈ 0.072 µM)	0.125 (≈ 0.3 µM)			
COC[C@@H]1CN(c2c(F)cc3c(=O)c(C(=O)O)cn(C4CC4)c3c2C)C[C@@H]1CO [drawing 389]	0.008 (≈ 0.0198 µM)	0.015 (≈ 0.0371 µM)	0.06 (≈ 0.148 µM)			
O=C(O)c1cn(C2CC2)c2c(Cl)c(N3CCC(C(O)C4(CO)CC4)C3)c(F)cc2c1=O (stereo not drawn) [drawing 321]	0.008 (≈ 0.0177 µM)	0.016 (≈ 0.0355 µM)	0.06 (≈ 0.133 µM)			
Cc1c(N2C[C@@H](CO)[C@@H](CO)C2)c(F)cc2c(=O)c(C(=O)O)cn(C3CC3)c12 [drawing 386]	0.001 (≈ 0.00256 µM)	0.015 (≈ 0.0384 µM)	0.06 (≈ 0.154 µM)			
COc1c(N2C[C@H](CO)[C@@H](CO)C2)c(F)cc2c(=O)c(C(=O)O)cn(C3CC3)c12 [drawing 385]	0.008 (≈ 0.0197 µM)	0.06 (≈ 0.148 µM)	0.25 (≈ 0.615 µM)			
COc1c(N2C[C@@H](CO)[C@@H](CO)C2)c(F)c(N)c2c(=O)c(C(=O)O)cn(C3CC3)c12 [drawing 381]	0.03 (≈ 0.0712 µM)	0.125 (≈ 0.297 µM)	0.25 (≈ 0.593 µM)			
CC(=O)OC[C@@H]1CN(c2c(F)cc3c(=O)c(C(=O)O)cn(C4CC4)c3c2C)C[C@@H]1COC(C)=O [drawing 392]	0.125 (≈ 0.263 µM)	0.06 (≈ 0.126 µM)	0.5 (≈ 1.05 µM)			
COc1c(N2CCC(C(CO)CO)C2)c(F)cc2c(=O)c(C(=O)O)cn(C3CC3)c12 (stereo not drawn) [drawing 307]	0.008 (≈ 0.019 µM)	0.015 (≈ 0.0357 µM)	0.06 (≈ 0.143 µM)			
O=C(O)c1cn(C2CC2)c2nc(N3CCC(C(O)C(F)(F)F)C3)c(F)cc2c1=O (stereo not drawn) [drawing 334]	0.016 (≈ 0.0385 µM)	0.016 (≈ 0.0385 µM)	0.125 (≈ 0.301 µM)			
COc1c(N2CCC(C(O)c3ccc(S(C)(=O)=O)o3)C2)c(F)cc2c(=O)c(C(=O)O)cn(C3CC3)c12 (stereo not drawn) [drawing 319]	0.06 (≈ 0.115 µM)	0.125 (≈ 0.24 µM)	2 (≈ 3.84 µM)			
Cc1c(N2CC(CO)C3(CC3)C2)c(F)cc2c(=O)c(C(=O)O)cn(C3CC3)c12 (stereo not drawn) [drawing 419]	0.015 (≈ 0.0388 µM)	0.008 (≈ 0.0207 µM)	0.125 (≈ 0.323 µM)			

Compound	MIC [1] [µg/mL]	MIC [2] [µg/mL]	MIC [3] [µg/mL]	Minimum Inhibitory Concentrations H. influenzae HI-3542 [1] [µg/mL]	Minimum Inhibitory Concentrations M. catarrhalis BC-3531 [2] [µg/mL]	Minimum Inhibitory Concentrations E. coli EC-2549 [3] [µg/mL]
CCCOC[C@@H]1CN(c2c(F)cc3c(=O)c(C(=O)O)cn(C4CC4)c3c2C)C[C@@H]1CO [drawing 391]	0.06 (≈ 0.139 µM)	0.03 (≈ 0.0694 µM)	0.25 (≈ 0.578 µM)			
COC[C@@H]1CN(c2c(F)cc3c(=O)c(C(=O)O)cn(C4CC4)c3c2C)C[C@@H]1COC [drawing 388]	0.25 (≈ 0.597 µM)	0.125 (≈ 0.299 µM)	2 (≈ 4.78 µM)			
Cc1c(N2CCC(C(C)O)C2)c(F)cc2c(=O)c(C(=O)O)cn(C3CC3)c12 (stereo not drawn) [drawing 317]				0.004	0.008	0.06
Cc1c(N2CC(C)(CO)C(C)(CO)C2)c(F)cc2c(=O)c(C(=O)O)cn(C3CC3)c12 (stereo not drawn) [drawing 437]				0.06	0.06	0.5
O=C(O)c1cn(C2CC2)c2c(Cl)c(N3CC(CO)C4(CC4)C3)c(F)cc2c1=O (stereo not drawn) [drawing 421]	0.004 (≈ 0.00983 µM)	0.008 (≈ 0.0197 µM)	0.06 (≈ 0.147 µM)			
Cc1c(N2CC(C(C)O)C(C)(C)C2)c(F)cc2c(=O)c(C(=O)O)cn(C3CC3)c12 (stereo not drawn) [drawing 423]	0.06 (≈ 0.149 µM)	0.015 (≈ 0.0373 µM)	0.25 (≈ 0.621 µM)			
Cc1c(N2CCC(C(O)C(F)(F)F)C2)c(F)cc2c(=O)c(C(=O)O)cn(C3CC3)c12 (stereo not drawn) [drawing 329]	0.06 (≈ 0.14 µM)	0.03 (≈ 0.07 µM)	0.5 (≈ 1.17 µM)			
COc1c(N2C[C@]3(CO)CCC[C@]3(CO)C2)c(F)cc2c(=O)c(C(=O)O)cn(C3CC3)c12 [drawing 451]	0.125 (≈ 0.28 µM)	0.25 (≈ 0.56 µM)	2 (≈ 4.48 µM)			
O=C(O)c1cn(C2CC2)c2c(Cl)c(N3CCC(C(O)C(F)F)C3)c(F)cc2c1=O (stereo not drawn) [drawing 312]	0.004 (≈ 0.00928 µM)	0.008 (≈ 0.0186 µM)	0.06 (≈ 0.139 µM)			
COc1c(N2CCC(C(O)C(F)(F)F)C2)c(F)cc2c(=O)c(C(=O)O)cn(C3CC3)c12 (stereo not drawn) [drawing 331]	0.015 (≈ 0.0338 µM)	0.008 (≈ 0.018 µM)	0.125 (≈ 0.281 µM)			
O=C(O)c1cn(C2CC2)c2nc(N3CCC(C(O)C(F)F)C3)c(F)cc2c1=O (stereo not drawn) [drawing 314]	0.008 (≈ 0.0201 µM)	0.016 (≈ 0.0403 µM)	0.125 (≈ 0.315 µM)			
Cc1c(N2CCC(C(C)O)C2)c(F)cc2c(=O)c(C(=O)O)cn(C3CC3)c12 (stereo not drawn) [drawing 315]	0.002 (≈ 0.00534 µM)		0.06 (≈ 0.16 µM)		0.002	
Cc1c(N2C[C@@H](COC(=O)C(C)C)[C@@H](COC(=O)C(C)C)C2)c(F)cc2c(=O)c(C(=O)O)cn(C3CC3)c12 [drawing 394]	2 (≈ 3.77 µM)	2 (≈ 3.77 µM)	8 (≈ 15.1 µM)			
COc1c(N2CCC(C(O)CO)C2)c(F)cc2c(=O)c(C(=O)O)cn(C3CC3)c12 (stereo not drawn) [drawing 322]	0.015 (≈ 0.0369 µM)	0.04 (≈ 0.0984 µM)	0.03 (≈ 0.0738 µM)			
COc1c(N2C[C@@H]3CC[C@@H](O)[C@@H]3C2)c(F)cc2c(=O)c(C(=O)O)cn(C3CC3)c12 [drawing 443]	0.03 (≈ 0.0745 µM)	0.03 (≈ 0.0745 µM)	0.25 (≈ 0.621 µM)			
O=C(O)c1cn(C2CC2)c2c(OC(F)F)c(N3C[C@@H](CCO)[C@@H](CCO)C3)c(F)cc2c1=O [drawing 397]	0.06 (≈ 0.128 µM)	0.125 (≈ 0.266 µM)	1 (≈ 2.13 µM)			
Cc1c(N2CC3(CO)CCCC3(CO)C2)c(F)cc2c(=O)c(C(=O)O)cn(C3CC3)c12 (stereo not drawn) [drawing 452]	0.015 (≈ 0.0348 µM)	0.03 (≈ 0.0697 µM)	0.125 (≈ 0.29 µM)			
Nc1nc(-n2cc(C(=O)O)c(=O)c3cc(F)c(N4CCC(C(O)C(F)(F)F)C4)c(Cl)c32)c(F)cc1F (stereo not drawn) [drawing 333]	0.06 (≈ 0.112 µM)	0.125 (≈ 0.233 µM)	1 (≈ 1.86 µM)			
COc1c(N2C[C@@H](CCO)[C@@H](CCO)C2)c(F)cc2c(=O)c(C(=O)O)cn(C3CC3)c12 [drawing 396]	0.06 (≈ 0.138 µM)	0.125 (≈ 0.288 µM)	1 (≈ 2.3 µM)			
COc1c(N2C[C@@H]3C[C@@H](O)[C@@H](O)[C@@H]3C2)c(F)cc2c(=O)c(C(=O)O)cn(C3CC3)c12	0.015 (≈ 0.0358 µM)	0.06 (≈ 0.143 µM)	0.25 (≈ 0.597 µM)			
Cc1c(N2CCC(C(F)(F)CO)C2)c(F)cc2c(=O)c(C(=O)O)cn(C3CC3)c12 (stereo not drawn) [drawing 335]	0.015 (≈ 0.0366 µM)	0.03 (≈ 0.0731 µM)	0.125 (≈ 0.305 µM)			
COC[C@H]1CN(c2c(F)cc3c(=O)c(C(=O)O)cn(C4CC4)c3c2C)C[C@H]1CO [drawing 387]	0.008 (≈ 0.0198 µM)	0.015 (≈ 0.0371 µM)	0.06 (≈ 0.148 µM)			
COc1c(N2CCC(C(C)O)C2)c(F)cc2c(=O)c(C(=O)O)cn(C3CC3)c12 (stereo not drawn) [drawing 316]	0.008 (≈ 0.0205 µM)	0.015 (≈ 0.0384 µM)	0.125 (≈ 0.32 µM)			
COc1c(N2C[C@@H](CO)[C@@H](CO)C2)c(F)cc2c(=O)c(C(=O)O)cn(C3CC3)c12 [drawing 384]	0.004 (≈ 0.00984 µM)	0.015 (≈ 0.0369 µM)	0.125 (≈ 0.308 µM)			

Reference: patent US20050107423A1, “Quinolone antibacterial agents” (priority 2003, published 2005)
